# “Also recorded” adds a separate entry of the source.
# What was measured:
# [1] = tested on: differentiated adipocytes; assay: Adiponectin secretion into conditioned medium of differentiated adipocytes (immunoblot); format: cell-based; details: inhibitors of classical secretory pathways
# Source text: FIG. 7A is a photograph of an electrophonetic gel showing non-classical secretion of aP2. Conditioned medium from adipocytes treated with control, brefeldin A (Bref A) or monensin (Mon) were blotted using anti-aP2 or adiponectin antibodies. Whole cell lysate (WCL) was also blotted using anti-aP2 antibody.
# (§1) Tissue protein lysate and conditioned medium from adipocytes were separated on SDS-PAGE gels and stained with Coomassie (Biorad Laboratory), or were detected with immunoblotting using the following antibodies: adiponectin from Santa Cruz Biotechnology, MFG-E8 from Calbiochem, caveolin-1 from BD Bioscience, AKT from Cell Signaling Technology. Flag-tagged aP2 was immunoprecipated using 4 ml of conditioned medium from transfected HEK 293 cells after incubation with 30 μl Flag agarose beads (Sigma) overnight at 4° C. Proteins bound to agarose beads were eluted with SDS loading buffer and resolved with SDS-PAGE.
# [2] = tested on: differentiated adipocytes; assay: aP2 secretion into conditioned medium of differentiated adipocytes (immunoblot); format: cell-based; details: for aP2 release from adipocytes treated with inhibitors of classical secretory pathways: conditioned medium blotted with anti-aP2; for lipolysis-induced aP2 secretion from adipocytes: co-treatment of adipocytes in which lipolysis was induced (IBMX/dbcAMP)
# Source text: HEK 293 cells were maintained in DMEM with 10% fetal bovine serum. FABP-deficient cell lines were established as previously described. Cao, H. et al. Identification of a lipokine, a lipid hormone linking adipose tissue to systemic metabolism. Cell 134, 933-944 (2008). Makowski, L. et al. Lack of macrophage fatty-acid-binding protein aP2 protects mice deficient in apolipoprotein E against atherosclerosis. Nat Med 7, 699-705 (2001). Pre-adipocytes were maintained in DMEM with 10% bovine calf serum and differentiated into adipocytes in DMEM with 10% cosmic calf serum (CCS) using a standard differentiation protocol. To induce lipolysis, differentiated adipocytes were treated with forskolin at 20 nM, or IBMX 1 mM/dibutyryl cAMP 1 mM for one hour. For lipid treatments, 0.25 mM palmitate or stearate was dissolved in DMEM with 10% CCS and added to adipocytes cultured in 12-well plates. At the end of one hour, the medium was replaced with the same lipid-containing medium, and conditioned medium was collected an additional hour later. To collect fat explants, epididymal adipose tissue depots were dissected from mice and rinsed twice in PBS. Adipose tissue samples were then transferred into DMEM with 10% CCS and minced into an average size of 1 to 2 mm. The tissue explants were washed extensively with DMEM and cultured in DMEM containing 10% CCS. Lipolysis was induced in the same manner as adipocytes.
# as §1
# [3] = tested on: serum aP2; assay: Serum aP2 in mice after isoproterenol-induced lipolysis; format: in vivo; details: isoproterenol 10 mg/kg, blood 15 min following injection, vs vehicle
# Protocol: Blood was collected from mice by tail bleeding after 6 hours of food withdrawal and spun in a microcentrifuge at 13,000 rpm for 30 minutes. Serum aP2 was determined with an ELISA system (Biovendor Inc.). […] To determine aP2 levels during lipolysis, blood was collected from 12 mice at baseline levels. After this, 6 mice were injected with isoproterenol (10 mg/kg body weight) and the other 6 received vehicle control. Blood samples were collected 15 min following injection for aP2 measurement.
# [4] = tested on: WT mice maintained on regular chow diet; assay: Glucose tolerance test of regular diet mice injected with recombinant aP2; format: in vivo; details: lean WT mice, recombinant aP2 100 μg twice a day for two weeks, vs control Gus protein
# Source text: FIG. 6I is a line graph showing glucose tolerance test of mice on regular diet injected with control Gus protein or recombinant aP2 for two weeks. *, p<0.05. Mice with homozygous null mutations in aP2 and mall were backcrossed more than 12 generations into a C57BL/6J genetic background. Mice were maintained on regular chow diet (RD) or placed on high-fat diet (Research Diets, Inc) at 4 weeks of age for 20 weeks to induce dietary obesity. Leptin-deficient (ob/ob) mice were purchased from the Jackson laboratory. All mice were maintained on a 12-hour light and dark cycle. Glucose and insulin tolerance tests using standard methods. Recombinant aP2 or control Gus protein with 6×His tag was produced in E. coli and purified with B-PER 6×His Spin Purification Kit (Pierce Biotechnology, Inc). Proteins were further purified by removing endotoxin with a commercial system (Lonza Inc.). 100 μg of control or aP2 protein was injected into WT mice maintained on regular chow diet twice a day for two weeks. The rabbit polyclonal antibody against mouse aP2 was produced using recombinant, full-length aP2 protein and the antibody was purified from serum of the final bleed using the NAb™ Spin system (Pierce Biotechnology, Inc). Pre-immune serum was purified similarly and used as control. […]
# [5] = tested on: FABP-deficient mice; assay: Hyperinsulinemic-euglycemic clamp in FABP-deficient mice infused with recombinant aP2; format: in vivo
# Protocol: The mice were fasted overnight before the experiments and were infused with Intralipid at 3 ml/kg/h (Abbott) and heparin (6 U/h) for 5 hours. […] Mice were catheterized as described above. Hyperinsulinemic-euglycemic clamps were performed by a modification of a reported procedure^15. After an overnight fast, HPLC purified [3H]-glucose (0.05 μCi/min; PerkinElmer Life and Analytical Sciences, Boston, Mass.) was infused during the 2-h basal period, and blood samples were collected at the end to estimate the rate of basal hepatic glucose production. After the basal period, a 120-min hyperinsulinemic-euglycemic clamp was conducted with a primed-continuous infusion of human insulin (Humulin R; Eli Lilly, Indianapolis, Ind.) at a rate of 12.5 mU/kg/min. Blood samples were collected at 20-min intervals for the immediate measurement of plasma glucose concentrations, and 25% glucose was infused at variable rates to maintain plasma glucose at basal concentrations. Insulin-stimulated whole-body glucose turnover was estimated with a continuous infusion of [3-^3H]-glucose throughout the clamps (0.1 μCi/min). All infusions were performed using flow-controlled microdialysis pumps (CMA/Microdialysis, North Chelmsford, Mass.). Blood samples were taken at 80, 85, 90, 100, 110, and 120 min after the start of clamps for the determination of plasma [^3H]-glucose, and ^3H2O concentrations. […]
# [6] = tested on: PEPCK and G6P; assay: Liver gluconeogenic gene expression by quantitative real-time PCR; format: in vivo; details: WT mice infused with recombinant aP2 vs control protein
# Protocol: FIG. 6K is a bar graph showing gene expression in livers of WT mice infused with control protein or recombinant aP2 (top panel) or mice on HFD injected with control or aP2 antibody (bottom panel). PEPCK and G6P in liver tissues were analyzed with quantitative real-time PCR. *, p<0.05.
# Total RNA was isolated from liver tissues using Trizol reagent (Invitrogen). Reverse transcription was carried out with a superscript first-strand cDNA synthesis system (Applied Biosystems Inc.) using 1 μg of RNA. Quantitative, real-time RT-PCR was performed on a PCR thermal cycler (Applied Biosystems Inc.). The PCR program was: 2 min 30 s at 95° C. for enzyme activation, 40 cycles of 15 s at 95° C., 30 s at 58° C., and 1 min at 72° C. for extension. Melting curve analysis was performed to confirm the real-time PCR products. All quantitations were normalized to the 1 8S rRNA. Primer sequences used were the following: PEPCK, forward: […](SEQ ID NO: 5), reverse: CAGCAACTGCCCGTACTCC (SEQ ID NO: 6); G6P, forward: […] (SEQ ID NO:7), reverse: […] (SEQ ID NO: 8).
# [7] = Serum aP2 ELISA after recombinant aP2 injection or infusion; format: in vivo, mice
# Protocol: FIG. 11 is a bar graph showing serum aP2 in WT mice after recombinant aP2 injection. Serum samples of mice were collected at indicated time points after aP2 injection and aP2 levels were determined with an aP2 ELISA.
# FIG. 13 is a line graph showing Serum aP2 in FABP-deficient (DKO) mice during aP2 infusion. Serum samples were collected from FABP-deficient mice during aP2 infusion at indicated time points. Serum aP2 levels were determined with an aP2 ELISA.
# Blood was collected from mice by tail bleeding after 6 hours of food withdrawal and spun in a microcentrifuge at 13,000 rpm for 30 minutes. Serum aP2 was determined with an ELISA system (Biovendor Inc.). To monitor nutritional regulation of serum aP2, blood samples were collected from mice immediately prior to the start of dark cycle after which animals were placed in cages without food. After 24 hours of fasting, a second set of blood samples were collected and food was provided. Final blood sampling was performed 4 hours after re-feeding. To determine aP2 levels during lipolysis, blood was collected from 12 mice at baseline levels. After this, 6 mice were injected with isoproterenol (10 mg/kg body weight) and the other 6 received vehicle control. Blood samples were collected 15 min following injection for aP2 measurement. […]
molecule,measurement,setting,value
C[C@H]1CCC/C=C/[C@@H]2C[C@H](O)C[C@H]2[C@H](O)/C=C/C(=O)O1 [brefeldin A],adiponectin secretion from adipocytes,[1],efficiently blocked adiponectin secretion
same,aP2 release from adipocytes treated with inhibitors of classical secretory pathways,[2],neither had any inhibitory effect
CC(C)NCC(O)c1ccc(O)c(O)c1 (centres unmarked) [isoproterenol],serum aP2 levels,[3],rapid increase in serum aP2 levels
CC[C@@]1([C@@H]2O[C@@H]([C@H]3O[C@@](O)(CO)[C@H](C)C[C@@H]3C)C[C@@H]2C)CC[C@H]([C@]2(C)CC[C@]3(C[C@H](O)[C@@H](C)[C@@H]([C@@H](C)[C@@H](OC)[C@H](C)C(=O)O)O3)O2)O1 [monensin],adiponectin secretion from adipocytes,[1],efficiently blocked adiponectin secretion
same,aP2 release from adipocytes treated with inhibitors of classical secretory pathways,[2],neither had any inhibitory effect
diethylumbelliferyl phosphate [DEUP],lipolysis-induced aP2 secretion from adipocytes,[2],completely blocked lipolysis-induced aP2 secretion
insulin,lipolysis-induced aP2 secretion from adipocytes,[2],aP2 secretion was suppressed
"recombinant aP2: Recombinant aP2 with 6×His tag produced in E. coli, purified, endotoxin removed (protein) CDAFVGTWKLVSSENFDDYMKEVGVGFATRKVAGMAKPNMIISVNGDLVTIRSESTFKNTEISFKLGVEFDEITADDRKVKSIITLDGGALVQVQKWDGKSTTIKRKRDGDKLVVECVMKGVTSTRVYERA",glucose tolerance in glucose tolerance test,[4],mild glucose intolerance; also recorded: developed glucose intolerance
same,glucose metabolism rates,[5]; FABP-deficient mice infused with recombinant aP2,absence of alterations in glucose metabolism rates
same,basal hepatic glucose production (bHGP),"[5]; FABP-deficient mice infused with recombinant aP2 for 4 hours, vs control protein",significantly increased basal hepatic glucose production
same,G6P gene expression in liver,[6],significantly upregulated
same,PEPCK gene expression in liver,[6],significantly upregulated
same,serum aP2 levels during aP2 infusion,"[7]; FABP-deficient mice, infusion 8 μg/kg/min",rapid increase in serum aP2 levels
same,serum aP2 levels after a single dose of recombinant aP2,"[7]; WT mice on regular chow diet, injection",increased levels of serum aP2 that lasted for several hours
